Here are results for 12 compounds from ChEMBL document CHEMBL3603741, “Structure activity relationship of pyridoxazinone substituted RHS analogs of oxabicyclooctane-linked 1,5-naphthyridinyl novel bacterial topoisomerase inhibitors as broad-spectrum antibacterial agents (Part-6)” (Bioorg Med Chem Lett, 2015).

The structures appear in SMILES notation. Values after ≈ are worked out from the molar mass of the structure shown.

Assay [1] relates to Staphylococcus aureus. Briefly: Antibacterial activity against Staphylococcus aureus Smith. Format: functional.
For another assay, the system named is Streptococcus pneumoniae. Briefly: Antibacterial activity against Streptococcus pneumoniae IID553. Format: functional.
In another assay the test system is Enterococcus faecium. The assay can be described thus: Antibacterial activity against VanA-resistant Enterococcus faecium. Format: functional.
The subject of a further assay is Escherichia coli. The assay can be described thus: Antibacterial activity against Escherichia coli ATCC 25922. Format: functional.
In the next assay the test system is Acinetobacter baumannii. Briefly: Antibacterial activity against Acinetobacter baumannii IID876. Format: functional.
Another assay relates to Pseudomonas aeruginosa. The assay can be described thus: Antibacterial activity against Pseudomonas aeruginosa PAO1. Format: functional.
For assay [2], the system named is Staphylococcus aureus. The assay can be described thus: Ratio of MIC for quinolone-resistant Staphylococcus aureus MS5935 to MIC for […]. Format: functional.
The target in assay [3] is T1, Voltage-gated inwardly rectifying potassium channel KCNH2 (Homo sapiens, UniProt Q12809). Briefly: Inhibition of MK499 binding to human ERG.
T1 sequence (Q12809 whole entry): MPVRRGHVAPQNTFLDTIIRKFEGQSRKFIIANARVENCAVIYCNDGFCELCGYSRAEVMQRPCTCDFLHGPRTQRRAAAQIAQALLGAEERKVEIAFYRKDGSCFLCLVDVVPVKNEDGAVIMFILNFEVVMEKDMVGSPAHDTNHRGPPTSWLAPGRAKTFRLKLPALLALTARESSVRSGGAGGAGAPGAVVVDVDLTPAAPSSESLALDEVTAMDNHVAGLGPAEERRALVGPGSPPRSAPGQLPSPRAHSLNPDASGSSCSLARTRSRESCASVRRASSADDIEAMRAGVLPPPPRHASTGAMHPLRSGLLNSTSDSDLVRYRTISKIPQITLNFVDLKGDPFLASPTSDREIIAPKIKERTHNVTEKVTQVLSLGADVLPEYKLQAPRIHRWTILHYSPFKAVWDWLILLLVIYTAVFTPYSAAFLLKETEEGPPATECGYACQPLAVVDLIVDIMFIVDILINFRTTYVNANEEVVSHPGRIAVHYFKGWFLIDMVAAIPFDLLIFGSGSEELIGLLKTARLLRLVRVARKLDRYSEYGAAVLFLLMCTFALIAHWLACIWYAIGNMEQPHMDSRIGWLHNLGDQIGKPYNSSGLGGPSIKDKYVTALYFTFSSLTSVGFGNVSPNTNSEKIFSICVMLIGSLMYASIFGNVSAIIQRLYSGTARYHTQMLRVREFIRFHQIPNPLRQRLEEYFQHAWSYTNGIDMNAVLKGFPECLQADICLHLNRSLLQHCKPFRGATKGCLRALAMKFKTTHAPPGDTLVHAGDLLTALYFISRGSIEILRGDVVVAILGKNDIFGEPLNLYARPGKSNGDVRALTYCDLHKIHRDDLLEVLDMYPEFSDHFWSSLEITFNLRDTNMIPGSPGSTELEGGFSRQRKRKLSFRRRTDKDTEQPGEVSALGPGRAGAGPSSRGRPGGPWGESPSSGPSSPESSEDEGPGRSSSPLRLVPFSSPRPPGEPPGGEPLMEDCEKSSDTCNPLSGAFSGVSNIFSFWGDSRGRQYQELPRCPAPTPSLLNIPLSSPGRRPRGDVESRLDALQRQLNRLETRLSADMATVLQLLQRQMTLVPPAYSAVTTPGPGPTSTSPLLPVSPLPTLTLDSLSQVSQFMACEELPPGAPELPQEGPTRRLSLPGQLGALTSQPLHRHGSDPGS
For assay [4], the target named is T1, Voltage-gated inwardly rectifying potassium channel KCNH2. The assay can be described thus: Inhibition of human ERG expressed in CHO cells measured for 5 mins by automated patch clamp assay. (In general: Patch clamp records ionic current or voltage across a cell membrane.)
Assay [5] deals with Staphylococcus aureus. Briefly: Antibacterial activity against Staphylococcus aureus Smith infected in iv dosed ICR mouse assessed as increase in survival rate administered at 1 hr post infection measured on day 7. Format: functional.
Assay [6] concerns Staphylococcus aureus. Briefly: Antibacterial activity against Staphylococcus aureus Smith infected in po dosed ICR mouse assessed as increase in survival rate administered at 1 hr post infection measured on day 7. Format: functional.
Where [7] appears, read: Staphylococcus aureus, Smith, read-out: MIC.
Setting [8] is: Streptococcus pneumoniae, IID553, read-out: MIC.
Where [9] appears, read: Enterococcus faecium, read-out: MIC.
The mark [10] stands for this setting: Escherichia coli, ATCC 25922, read-out: MIC.
Setting [11] is: Acinetobacter baumannii, IID876, read-out: MIC.
Where [12] appears, read: Pseudomonas aeruginosa, PAO1, read-out: MIC.

One may read the MIC as the lowest concentration found to suppress growth. Consider `COc1ccc2ncc(F)c(CCC34CCC(NCc5ccc6c(n5)N(C)C(=O)CO6)(CC3)CO4)c2n1`, for which the minimum inhibitory concentration (MIC) with Staphylococcus aureus [1] (setting [7]) came out at 2 µg/mL (≈ 3.94 µM); with Streptococcus pneumoniae (setting [8]) it was 2 µg/mL (≈ 3.94 µM); with Enterococcus faecium (setting [9]), 16 µg/mL (≈ 31.5 µM); in the assay with Escherichia coli (setting [10]), 16 µg/mL (≈ 31.5 µM); with Acinetobacter baumannii (setting [11]), 16 µg/mL (≈ 31.5 µM); with Pseudomonas aeruginosa (setting [12]), 16 µg/mL (≈ 31.5 µM).
A word on the IC50: it is the concentration that inhibits the measured activity by half. For the compound `COc1ccc2ncc(F)c(CCC34CCC(N(C)Cc5ccc6c(n5)NC(=O)CO6)(CC3)CO4)c2n1`, the minimal inhibitory concentration (MIC) came out at 0.13 µg/mL (≈ 0.256 µM) with Staphylococcus aureus [1] (setting [7]); 2 µg/mL (≈ 3.94 µM) in the assay with Streptococcus pneumoniae (setting [8]); 8 µg/mL (≈ 15.8 µM) in the assay on Enterococcus faecium (setting [9]); 16 µg/mL (≈ 31.5 µM) in the assay with Escherichia coli (setting [10]); 8 µg/mL (≈ 15.8 µM) in the assay with Acinetobacter baumannii (setting [11]); 32 µg/mL (≈ 63 µM) with Pseudomonas aeruginosa (setting [12]). The Ratio in the assay with Staphylococcus aureus [2] was below 4. Also, in assay [3], the IC50 came out at 1.2 µM.
Take `COC(=O)N(Cc1ccc2c(n1)NC(=O)CO2)C12CCC(CCc3c(F)cnc4ccc(OC)nc34)(CC1)OC2`: the minimal inhibitory concentration (MIC) with Staphylococcus aureus [1] (setting [7]) amounted to 16 µg/mL (≈ 29 µM); with Streptococcus pneumoniae (setting [8]) it was 64 µg/mL (≈ 116 µM); in the assay on Enterococcus faecium (setting [9]), 64 µg/mL (≈ 116 µM); in the assay on Escherichia coli (setting [10]), 64 µg/mL (≈ 116 µM); with Acinetobacter baumannii (setting [11]) it was 64 µg/mL (≈ 116 µM); in the assay on Pseudomonas aeruginosa (setting [12]) it was 64 µg/mL (≈ 116 µM).
As for `COc1ccc2ncc(F)c(CCC34CCC(NC(=O)c5ccc6c(n5)NC(=O)CO6)(CC3)CO4)c2n1`, the MIC was determined as 0.02 µg/mL (≈ 0.0394 µM) in the assay on Staphylococcus aureus [1] (setting [7]); 0.5 µg/mL (≈ 0.985 µM) in the assay with Streptococcus pneumoniae (setting [8]); 1 µg/mL (≈ 1.97 µM) in the assay on Enterococcus faecium (setting [9]); 8 µg/mL (≈ 15.8 µM) in the assay on Escherichia coli (setting [10]); 8 µg/mL (≈ 15.8 µM) in the assay with Acinetobacter baumannii (setting [11]); 8 µg/mL (≈ 15.8 µM) with Pseudomonas aeruginosa (setting [12]).
Regarding `COc1ccc2ncc(F)c(CCC34CCC(N(C)C(=O)c5ccc6c(n5)NC(=O)CO6)(CC3)CO4)c2n1`, the minimum inhibitory concentration (MIC) turned out to be 0.03 µg/mL (≈ 0.0575 µM) with Staphylococcus aureus [1] (setting [7]); 4 µg/mL (≈ 7.67 µM) with Streptococcus pneumoniae (setting [8]); 4 µg/mL (≈ 7.67 µM) in the assay with Enterococcus faecium (setting [9]); 4 µg/mL (≈ 7.67 µM) with Escherichia coli (setting [10]); 4 µg/mL (≈ 7.67 µM) in the assay with Acinetobacter baumannii (setting [11]); 4 µg/mL (≈ 7.67 µM) with Pseudomonas aeruginosa (setting [12]). The Ratio in the assay with Staphylococcus aureus [2] was below 4. Further, the IC50 is above 60 µM in assay [3] and above 30 µM in assay [4].
The term ED50 denotes the dose at which the effect has come halfway, by size or by number of responders. `COc1ccc2ncc(F)c(C[C@H](O)C3CCC(NCc4nc5c(cc4F)OCC(=O)N5)CO3)c2n1` (stereo partly drawn): the minimal inhibitory concentration (MIC) turned out to be 0.03 µg/mL (≈ 0.0598 µM) in the assay on Staphylococcus aureus [1] (setting [7]); 0.25 µg/mL (≈ 0.499 µM) in the assay on Streptococcus pneumoniae (setting [8]); 2 µg/mL (≈ 3.99 µM) in the assay with Enterococcus faecium (setting [9]); 4 µg/mL (≈ 7.98 µM) in the assay with Escherichia coli (setting [10]); 1 µg/mL (≈ 1.99 µM) in the assay on Acinetobacter baumannii (setting [11]); 16 µg/mL (≈ 31.9 µM) in the assay with Pseudomonas aeruginosa (setting [12]). The median effective dose (ED50) was 3.2 mg/kg in the assay with Staphylococcus aureus [5] and 6.7 mg/kg with Staphylococcus aureus [6].
As for `COc1ccc2ncc(F)c(C[C@H](O)C3CCC(NCc4nc5c(cc4OC)OCC(=O)N5)CO3)c2n1` (stereo partly drawn), the MIC with Staphylococcus aureus [1] (setting [7]), with Streptococcus pneumoniae (setting [8]), in the assay on Enterococcus faecium (setting [9]), in the assay on Escherichia coli (setting [10]), with Acinetobacter baumannii (setting [11]) and in the assay on Pseudomonas aeruginosa (setting [12]) was 16 µg/mL (≈ 31.2 µM) in each case. In addition, in the assay with Staphylococcus aureus [2], the Ratio is given as below 4.
As for `COc1ccc2ncc(F)c(C[C@H](O)C3CCC(NCc4ccc5c(n4)NC(=O)CO5)CO3)c2n1` (stereo partly drawn), the minimum inhibitory concentration (MIC) is 0.03 µg/mL (≈ 0.062 µM) in the assay on Staphylococcus aureus [1] (setting [7]); 2 µg/mL (≈ 4.14 µM) in the assay with Streptococcus pneumoniae (setting [8]); 2 µg/mL (≈ 4.14 µM) in the assay with Enterococcus faecium (setting [9]); 16 µg/mL (≈ 33.1 µM) in the assay on Escherichia coli (setting [10]); 2 µg/mL (≈ 4.14 µM) in the assay on Acinetobacter baumannii (setting [11]); 32 µg/mL (≈ 66.2 µM) in the assay with Pseudomonas aeruginosa (setting [12]). Besides, the Ratio in the assay with Staphylococcus aureus [2] is recorded as below 4.
Regarding `COc1ccc2ncc(F)c(CCC34CCC(NCc5ccc6c(n5)NC(=O)C(C)O6)(CC3)CO4)c2n1` (single isomer, unassigned; (+)), the MIC with Staphylococcus aureus [1] turned out to be 0.25 µg/mL (≈ 0.493 µM); in the assay on Streptococcus pneumoniae (setting [8]), 0.25 µg/mL (≈ 0.493 µM); in the assay with Enterococcus faecium (setting [9]), 2 µg/mL (≈ 3.94 µM); in the assay with Escherichia coli (setting [10]), 2 µg/mL (≈ 3.94 µM); with Acinetobacter baumannii (setting [11]) it was 2 µg/mL (≈ 3.94 µM); with Pseudomonas aeruginosa (setting [12]), 2 µg/mL (≈ 3.94 µM).
Turning to `CCOC(=O)C1(C)Oc2ccc(CNC34CCC(CCc5c(F)cnc6ccc(OC)nc56)(CC3)OC4)nc2NC1=O` (single isomer, unassigned; (+)), the MIC in the assay on Staphylococcus aureus [1] (setting [7]), in the assay on Streptococcus pneumoniae, with Enterococcus faecium (setting [9]), with Escherichia coli (setting [10]), with Acinetobacter baumannii (setting [11]) and in the assay with Pseudomonas aeruginosa (setting [12]) was 16 µg/mL (≈ 27.6 µM) in each case.
For `COc1ccc2ncc(F)c(CCC34CCC(NCc5ccc6c(n5)NC(=O)C(C)O6)(CC3)CO4)c2n1` (single isomer, unassigned; (-)), the MIC against Staphylococcus aureus [1] is 0.06 µg/mL (≈ 0.118 µM); in the assay with Streptococcus pneumoniae, 0.25 µg/mL (≈ 0.493 µM); in the assay on Enterococcus faecium, 2 µg/mL (≈ 3.94 µM); in the assay on Escherichia coli, 2 µg/mL (≈ 3.94 µM); with Acinetobacter baumannii it was 1 µg/mL (≈ 1.97 µM); in the assay on Pseudomonas aeruginosa, 2 µg/mL (≈ 3.94 µM). The ED50 amounted to 14 mg/kg with Staphylococcus aureus [5] and 28 mg/kg with Staphylococcus aureus [6].
With `CCOC(=O)C1(C)Oc2ccc(CNC34CCC(CCc5c(F)cnc6ccc(OC)nc56)(CC3)OC4)nc2NC1=O` (single isomer, unassigned; (-)), the MIC with Staphylococcus aureus [1], in the assay with Streptococcus pneumoniae (setting [8]), in the assay on Enterococcus faecium, against Escherichia coli, in the assay on Acinetobacter baumannii and in the assay with Pseudomonas aeruginosa was 8 µg/mL (≈ 13.8 µM) in each case.
